For 11 compounds, IC50 results are on record in ChEMBL document CHEMBL1125526, “Penicillin derived C2-symmetric dimers as novel inhibitors of HIV-1 proteinase” (J Med Chem, 1992).

Each structure is given as a SMILES string.

The assay concerns the target Human immunodeficiency virus type 1 protease (Human immunodeficiency virus 1, UniProt Q72874). Description: Inhibitory activity towards HIV-1 protease.
Broadly, the IC50 is the concentration that inhibits the measured activity by half. A higher IC50 goes with weaker potency. Consider `CCNC(=O)[C@@H](NC(=O)Cc1ccccc1)[C@@H]1N[C@@H](C(=O)OCCOC(=O)[C@@H]2N[C@@H]([C@H](NC(=O)Cc3ccccc3)C(=O)NCC)SC2(C)C)C(C)(C)S1`, for which the IC50 is above 12000 nM. In turn, `CCNC(=O)[C@@H](NC(=O)Cc1ccccc1)[C@@H]1N[C@@H](C(=O)NCCNC(=O)[C@@H]2N[C@@H]([C@H](NC(=O)Cc3ccccc3)C(=O)NCC)SC2(C)C)C(C)(C)S1` gave an IC50 of 4.8 nM.

Turning to `CC1(C)S[C@@H]2[C@H](NC(=O)Cc3ccccc3)C(=O)N2[C@H]1C(=O)NCCNC(=O)[C@@H]1N2C(=O)[C@@H](NC(=O)Cc3ccccc3)[C@H]2SC1(C)C`, the IC50 is above 70000 nM. In the case of `COC(=O)[C@@H](NC(=O)Cc1ccccc1)[C@@H]1N[C@@H](C(=O)NCCNC(=O)[C@@H]2N[C@@H]([C@H](NC(=O)Cc3ccccc3)C(=O)OC)SC2(C)C)C(C)(C)S1`, inhibition was half-maximal at 60 nM (IC50). `COC(=O)[C@@H](NC(=O)Cc1ccccc1)[C@@H]1N[C@@H](C(=O)NCCNC(C)=O)C(C)(C)S1` returned an IC50 above 55000 nM.

For the compound `CCNC(=O)[C@@H]1N[C@@H]([C@H](NC(=O)Cc2ccccc2)C(=O)OC)SC1(C)C`, the IC50 was above 63000 nM. The compound `COC(=O)[C@@H](NC(=O)Cc1ccccc1)[C@@H]1N[C@@H](C(=O)NCCCNC(=O)[C@@H]2N[C@@H]([C@H](NC(=O)Cc3ccccc3)C(=O)OC)SC2(C)C)C(C)(C)S1` came in with an IC50 above 12000 nM. Take `COC(=O)[C@@H](NC(=O)Cc1ccccc1)[C@@H]1N[C@@H](C(=O)NNC(=O)[C@@H]2N[C@@H]([C@H](NC(=O)Cc3ccccc3)C(=O)OC)SC2(C)C)C(C)(C)S1`: the IC50 came out at 6800 nM. `CC1(C)S[C@H]([C@H](NC(=O)Cc2ccccc2)C(N)=O)N[C@H]1C(=O)NCCNC(=O)[C@@H]1N[C@@H]([C@H](NC(=O)Cc2ccccc2)C(N)=O)SC1(C)C` showed an IC50 of 3 nM.

Regarding `COC(=O)[C@@H](NC(=O)Cc1ccccc1)[C@@H]1N[C@@H](C(=O)NCCNC(=O)[C@@H]2N3C(=O)C(NC(=O)Cc4ccccc4)[C@H]3SC2(C)C)C(C)(C)S1` (stereo partly specified), the concentration for half-maximal inhibition (IC50) turned out to be 500 nM. `CC1(C)S[C@H]([C@H](NC(=O)Cc2ccccc2)C(=O)NCc2ccccc2)N[C@H]1C(=O)NCCNC(=O)[C@@H]1N[C@@H]([C@H](NC(=O)Cc2ccccc2)C(=O)NCc2ccccc2)SC1(C)C` had an IC50 of 0.9 nM.
